Experimental data published in ChEMBL document CHEMBL1125761, “Synthesis of water-soluble (aminoalkyl)camptothecin analogues: inhibition of topoisomerase I and antitumor activity” (J Med Chem, 1991).

These compounds were tested on L1210 (assay: Inhibitory activity […] bearing L1210 leukemia). Conditions: Mus musculus, L1210.
Assay type: functional, cell-based, Mus musculus

Row | Structure (SMILES) | IC50
1 | CC[C@@]1(O)C(=O)OCc2c1cc1n(c2=O)Cc2cc3cc(P(=O)(O)O)ccc3nc2-1 | 26000 nM
2 | CC[C@@]1(O)C(=O)OCc2c1cc1n(c2=O)Cc2cc3ccccc3nc2-1 [CAMPTOTHECIN] | 23 nM
3 | CC[C@@]1(O)C(=O)OCc2c1cc1n(c2=O)Cc2cc3c(N)cccc3nc2-1 [9-AMINOCAMPTOTHECIN] | 12 nM
4 | CCC1(O)C(=O)OCc2c1cc1n(c2=O)Cc2c-1nc1ccccc1c2CCN(C)C(=O)OCc1ccccc1 (stereo not drawn) | 62 nM
5 | CC[C@@]1(O)C(=O)OCc2c1cc1n(c2=O)Cc2cc3c(CCN)c(O)ccc3nc2-1 | 360 nM
6 | CCOCc1c(O)ccc2nc3c(cc12)Cn1c-3cc2c(c1=O)COC(=O)[C@]2(O)CC | 48 nM
7 | CC[C@@]1(O)C(=O)OCc2c1cc1n(c2=O)Cc2cc3c(CSCCN(C)C)c(O)ccc3nc2-1 | 12 nM
8 | CC[C@@]1(O)C(=O)OCc2c1cc1n(c2=O)Cc2cc3c(CNC4CCCCC4)c(O)ccc3nc2-1 | 56 nM
9 | CC[C@@]1(O)C(=O)OCc2c1cc1n(c2=O)Cc2cc3c(C=O)c(O)ccc3nc2-1 | 260 nM
10 | CCC1(O)C(=O)OCc2c1cc1n(c2=O)Cc2c-1nc1ccccc1c2CCNC (stereo not drawn) | 44 nM
11 | CC[C@@]1(O)C(=O)OCc2c1cc1n(c2=O)Cc2cc3c(C[N+](C)(C)C)c(O)ccc3nc2-1 | 150 nM
12 | CC[C@@]1(O)C(=O)OCc2c1cc1n(c2=O)Cc2cc3c(CN4CCN(C)CC4)c(O)ccc3nc2-1 | 72 nM
13 | CC[C@@]1(O)C(=O)OCc2c1cc1n(c2=O)Cc2cc3c(CNCCO)c(O)ccc3nc2-1 | 250 nM
14 | CC[C@@]1(O)C(=O)OCc2c1cc1n(c2=O)Cc2cc3c(CN(C)C)cccc3nc2-1 | 65 nM
15 | CC[C@@]1(O)C(=O)OCc2c1cc1n(c2=O)Cc2cc3c(CNC4CC4)c(O)ccc3nc2-1 | 130 nM
16 | CC[C@@]1(O)C(=O)OCc2c1cc1n(c2=O)Cc2cc3c(CC#N)c(O)ccc3nc2-1 | 400 nM
17 | CC[C@@]1(O)C(=O)OCc2c1cc1n(c2=O)Cc2cc3c(CNCCN(C)C)c(O)ccc3nc2-1 | 49 nM
18 | CCC1(O)C(=O)OCc2c1cc1n(c2=O)Cc2c-1nc1ccc(CCN)cc1c2C (stereo not drawn) | 29 nM
19 | CC[C@@]1(O)C(=O)OCc2c1cc1n(c2=O)Cc2cc3c(CN(C)c4ccccc4)c(O)ccc3nc2-1 | 69 nM
20 | CC[C@@]1(O)C(=O)OCc2c1cc1n(c2=O)Cc2cc3c(CN4CCOCC4)cccc3nc2-1 | 690 nM
21 | CCC1(O)C(=O)OCc2c1cc1n(c2=O)Cc2c-1nc1ccc(CC#N)cc1c2C (stereo not drawn) | 7.5 nM
22 | CC[C@@]1(O)C(=O)OCc2c1cc1n(c2=O)Cc2cc3cc(C#N)ccc3nc2-1 | 80 nM
23 | CC[C@@]1(O)C(=O)OCc2c1cc1n(c2=O)Cc2cc3c(C)cccc3nc2-1 | 70 nM
24 | CC[C@@]1(O)C(=O)OCc2c1cc1n(c2=O)Cc2cc3c(CN4CCC(N5CCCCC5)CC4)c(O)ccc3nc2-1 | 270 nM
25 | CC[C@@]1(O)C(=O)OCc2c1cc1n(c2=O)Cc2cc3cc(CN)ccc3nc2-1 | 90 nM
26 | CC[C@@]1(O)C(=O)OCc2c1cc1n(c2=O)Cc2cc3c(COCCN(C)C)c(O)ccc3nc2-1 | 180 nM
27 | CC[C@@]1(O)C(=O)OCc2c1cc1n(c2=O)Cc2cc3c(CN4CCOCC4)c(O)ccc3nc2-1 | 370 nM

Same assay, conditions: l1210

Row | Structure (SMILES) | IC50
28 | CC[C@@]1(O)C(=O)OCc2c1cc1n(c2=O)Cc2cc3cc(O)ccc3nc2-1 [HYDROXYCAMPTOTHECIN] | 18 nM

Organism: Mus musculus
Test: Effect in increasing life span of mice bearing L1210 leukemia
Assay type: functional
Conditions: not given

Row | Structure (SMILES) | ILS
29 | CC[C@@]1(O)C(=O)OCc2c1cc1n(c2=O)Cc2cc3c(CN(C)C)c(O)ccc3nc2-1 [TOPOTECAN] | 173%
30 | CC[C@@]1(O)C(=O)OCc2c1cc1n(c2=O)Cc2cc3ccccc3nc2-1 [CAMPTOTHECIN] | 118%
31 | CC[C@@]1(O)C(=O)OCc2c1cc1n(c2=O)Cc2cc3c(N)cccc3nc2-1 [9-AMINOCAMPTOTHECIN] | 94%
32 | CCC1(O)C(=O)OCc2c1cc1n(c2=O)Cc2c-1nc1ccccc1c2CCN(C)C(=O)OCc1ccccc1 (stereo not drawn) | 62%
33 | CC[C@@]1(O)C(=O)OCc2c1cc1n(c2=O)Cc2cc3c(CCN)c(O)ccc3nc2-1 | 75%
34 | CCOCc1c(O)ccc2nc3c(cc12)Cn1c-3cc2c(c1=O)COC(=O)[C@]2(O)CC | 125%
35 | CC[C@@]1(O)C(=O)OCc2c1cc1n(c2=O)Cc2cc3c(CSCCN(C)C)c(O)ccc3nc2-1 | >112%
36 | CC[C@@]1(O)C(=O)OCc2c1cc1n(c2=O)Cc2cc3c(CNC4CCCCC4)c(O)ccc3nc2-1 | >200%
37 | CC[C@@]1(O)C(=O)OCc2c1cc1n(c2=O)Cc2cc3c(C=O)c(O)ccc3nc2-1 | >75%
38 | CCC1(O)C(=O)OCc2c1cc1n(c2=O)Cc2c-1nc1ccccc1c2CCNC (stereo not drawn) | 43%
39 | CCc1c2c(nc3ccc(O)cc13)-c1cc3c(c(=O)n1C2)COC(=O)[C@]3(O)CC [7-ETHYL-10-HYDROXYCAMPTOTHECIN] | 144%
40 | CC[C@@]1(O)C(=O)OCc2c1cc1n(c2=O)Cc2cc3c(C[N+](C)(C)C)c(O)ccc3nc2-1 | >200%
41 | CC[C@@]1(O)C(=O)OCc2c1cc1n(c2=O)Cc2cc3c(CN4CCN(C)CC4)c(O)ccc3nc2-1 | >200%
42 | CC[C@@]1(O)C(=O)OCc2c1cc1n(c2=O)Cc2cc3c(CNCCO)c(O)ccc3nc2-1 | 62%
43 | CC[C@@]1(O)C(=O)OCc2c1cc1n(c2=O)Cc2cc3c(CN(C)C)cccc3nc2-1 | 88%
44 | CC[C@@]1(O)C(=O)OCc2c1cc1n(c2=O)Cc2cc3c(CNC4CC4)c(O)ccc3nc2-1 | 131%
45 | CC[C@@]1(O)C(=O)OCc2c1cc1n(c2=O)Cc2cc3c(CC#N)c(O)ccc3nc2-1 | >200%
46 | CC[C@@]1(O)C(=O)OCc2c1cc1n(c2=O)Cc2cc3c(CNCCN(C)C)c(O)ccc3nc2-1 | >94%
47 | CCC1(O)C(=O)OCc2c1cc1n(c2=O)Cc2c-1nc1ccc(CCN)cc1c2C (stereo not drawn) | >33%
48 | CC[C@@]1(O)C(=O)OCc2c1cc1n(c2=O)Cc2cc3c(CN(C)c4ccccc4)c(O)ccc3nc2-1 | 138%
49 | CC[C@@]1(O)C(=O)OCc2c1cc1n(c2=O)Cc2cc3c(CN4CCOCC4)cccc3nc2-1 | 144%
50 | CC[C@@]1(O)C(=O)OCc2c1cc1n(c2=O)Cc2cc3cc(O)ccc3nc2-1 [HYDROXYCAMPTOTHECIN] | 78%
51 | CCC1(O)C(=O)OCc2c1cc1n(c2=O)Cc2c-1nc1ccc(CC#N)cc1c2C (stereo not drawn) | 106%
52 | CC[C@@]1(O)C(=O)OCc2c1cc1n(c2=O)Cc2cc3cc(C#N)ccc3nc2-1 | 100%
53 | CC[C@@]1(O)C(=O)OCc2c1cc1n(c2=O)Cc2cc3c(C)cccc3nc2-1 | >200%
54 | CC[C@@]1(O)C(=O)OCc2c1cc1n(c2=O)Cc2cc3c(CN4CCC(N5CCCCC5)CC4)c(O)ccc3nc2-1 | >44%
55 | CC[C@@]1(O)C(=O)OCc2c1cc1n(c2=O)Cc2cc3cc(CN)ccc3nc2-1 | 112%
56 | CC[C@@]1(O)C(=O)OCc2c1cc1n(c2=O)Cc2cc3c(COCCN(C)C)c(O)ccc3nc2-1 | 188%
57 | CC[C@@]1(O)C(=O)OCc2c1cc1n(c2=O)Cc2cc3c(CN4CCOCC4)c(O)ccc3nc2-1 | 83%

Organism: Mus musculus
Test: Maximally tolerated dose in mice bearing L1210 leukemia.
Assay type: functional
Conditions: not given

Row | Structure (SMILES) | MTD
58 | CC[C@@]1(O)C(=O)OCc2c1cc1n(c2=O)Cc2cc3c(CN(C)C)c(O)ccc3nc2-1 [TOPOTECAN] | 30 µM/kg
59 | CC[C@@]1(O)C(=O)OCc2c1cc1n(c2=O)Cc2cc3ccccc3nc2-1 [CAMPTOTHECIN] | 22 µM/kg
60 | CC[C@@]1(O)C(=O)OCc2c1cc1n(c2=O)Cc2cc3c(N)cccc3nc2-1 [9-AMINOCAMPTOTHECIN] | 8.9 µM/kg
61 | CCC1(O)C(=O)OCc2c1cc1n(c2=O)Cc2c-1nc1ccccc1c2CCN(C)C(=O)OCc1ccccc1 (stereo not drawn) | 128 µM/kg
62 | CC[C@@]1(O)C(=O)OCc2c1cc1n(c2=O)Cc2cc3c(CCN)c(O)ccc3nc2-1 | 210 µM/kg
63 | CCOCc1c(O)ccc2nc3c(cc12)Cn1c-3cc2c(c1=O)COC(=O)[C@]2(O)CC | 56 µM/kg
64 | CC[C@@]1(O)C(=O)OCc2c1cc1n(c2=O)Cc2cc3c(CNC4CCCCC4)c(O)ccc3nc2-1 | 47 µM/kg
65 | CCC1(O)C(=O)OCc2c1cc1n(c2=O)Cc2c-1nc1ccccc1c2CCNC (stereo not drawn) | 122 µM/kg
66 | CCc1c2c(nc3ccc(O)cc13)-c1cc3c(c(=O)n1C2)COC(=O)[C@]3(O)CC [7-ETHYL-10-HYDROXYCAMPTOTHECIN] | 86 µM/kg
67 | CC[C@@]1(O)C(=O)OCc2c1cc1n(c2=O)Cc2cc3c(C[N+](C)(C)C)c(O)ccc3nc2-1 | 68 µM/kg
68 | CC[C@@]1(O)C(=O)OCc2c1cc1n(c2=O)Cc2cc3c(CNCCO)c(O)ccc3nc2-1 | 82 µM/kg
69 | CC[C@@]1(O)C(=O)OCc2c1cc1n(c2=O)Cc2cc3c(CN(C)C)cccc3nc2-1 | 29 µM/kg
70 | CC[C@@]1(O)C(=O)OCc2c1cc1n(c2=O)Cc2cc3c(CNC4CC4)c(O)ccc3nc2-1 | 48 µM/kg
71 | CCc1c2c(nc3ccc(OC(=O)N4CCC(N5CCCCC5)CC4)cc13)-c1cc3c(c(=O)n1C2)COC(=O)[C@]3(O)CC [IRINOTECAN] | 245 µM/kg
72 | CC[C@@]1(O)C(=O)OCc2c1cc1n(c2=O)Cc2cc3c(CC#N)c(O)ccc3nc2-1 | 28 µM/kg
73 | CCC1(O)C(=O)OCc2c1cc1n(c2=O)Cc2c-1nc1ccc(CCN)cc1c2C (stereo not drawn) | 68 µM/kg
74 | CC[C@@]1(O)C(=O)OCc2c1cc1n(c2=O)Cc2cc3c(CN(C)c4ccccc4)c(O)ccc3nc2-1 | 83 µM/kg
75 | CC[C@@]1(O)C(=O)OCc2c1cc1n(c2=O)Cc2cc3c(CN4CCOCC4)cccc3nc2-1 | 29 µM/kg
76 | CC[C@@]1(O)C(=O)OCc2c1cc1n(c2=O)Cc2cc3cc(O)ccc3nc2-1 [HYDROXYCAMPTOTHECIN] | 21 µM/kg
77 | CCC1(O)C(=O)OCc2c1cc1n(c2=O)Cc2c-1nc1ccc(CC#N)cc1c2C (stereo not drawn) | 6.4 µM/kg
78 | CC[C@@]1(O)C(=O)OCc2c1cc1n(c2=O)Cc2cc3cc(C#N)ccc3nc2-1 | 7.8 µM/kg
79 | CC[C@@]1(O)C(=O)OCc2c1cc1n(c2=O)Cc2cc3c(C)cccc3nc2-1 | 15 µM/kg
80 | CC[C@@]1(O)C(=O)OCc2c1cc1n(c2=O)Cc2cc3cc(CN)ccc3nc2-1 | 160 µM/kg
81 | CC[C@@]1(O)C(=O)OCc2c1cc1n(c2=O)Cc2cc3c(COCCN(C)C)c(O)ccc3nc2-1 | 50 µM/kg
82 | CC[C@@]1(O)C(=O)OCc2c1cc1n(c2=O)Cc2cc3c(CN4CCOCC4)c(O)ccc3nc2-1 | 190 µM/kg

Organism: Mus musculus
Test: Compound tested for maximally tolerated dose in mice bearing L1210 leukemia; No toxicity was observed
Assay type: functional
Conditions: not given

Row | Structure (SMILES) | MTD
83 | CC[C@@]1(O)C(=O)OCc2c1cc1n(c2=O)Cc2cc3cc(P(=O)(O)O)ccc3nc2-1 | 155 µM/kg
84 | CC[C@@]1(O)C(=O)OCc2c1cc1n(c2=O)Cc2cc3c(CSCCN(C)C)c(O)ccc3nc2-1 | 76 µM/kg
85 | CC[C@@]1(O)C(=O)OCc2c1cc1n(c2=O)Cc2cc3c(C=O)c(O)ccc3nc2-1 | 102 µM/kg
86 | CC[C@@]1(O)C(=O)OCc2c1cc1n(c2=O)Cc2cc3c(CN4CCN(C)CC4)c(O)ccc3nc2-1 | 74 µM/kg
87 | CC[C@@]1(O)C(=O)OCc2c1cc1n(c2=O)Cc2cc3c(CNCCN(C)C)c(O)ccc3nc2-1 | 78 µM/kg
88 | CC[C@@]1(O)C(=O)OCc2c1cc1n(c2=O)Cc2cc3c(CN4CCC(N5CCCCC5)CC4)c(O)ccc3nc2-1 | 77 µM/kg
